{
  "source": "patent US12723063B2",
  "about": "“GIPR-agonist compounds” (Eli Lilly and Company, priority 2019, dated 2026)",
  "biological_target": "T1, human GcgR (Homo sapiens, UniProt P47871)",
  "T1 construct": "expressed in transfected cells; crude membranes",
  "T1 sequence (P47871 26-477)": "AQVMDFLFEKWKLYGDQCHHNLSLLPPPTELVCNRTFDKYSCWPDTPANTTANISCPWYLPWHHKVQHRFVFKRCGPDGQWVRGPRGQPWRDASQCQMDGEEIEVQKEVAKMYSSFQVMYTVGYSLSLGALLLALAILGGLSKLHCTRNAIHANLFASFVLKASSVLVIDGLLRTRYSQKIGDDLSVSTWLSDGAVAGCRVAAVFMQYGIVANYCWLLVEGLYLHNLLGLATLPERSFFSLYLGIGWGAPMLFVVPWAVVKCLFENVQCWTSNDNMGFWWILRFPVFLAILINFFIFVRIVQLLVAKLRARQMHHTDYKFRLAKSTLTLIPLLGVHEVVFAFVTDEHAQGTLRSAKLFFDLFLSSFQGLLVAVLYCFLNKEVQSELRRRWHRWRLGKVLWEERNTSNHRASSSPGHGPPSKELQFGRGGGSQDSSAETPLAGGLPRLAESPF",
  "experiment": "[125I]-Glucagon binding, SPA with WGA beads, 0.1% bacitracin",
  "details": "geometric mean, read-out: hGcgR Ki",
  "outline": "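SPA competition binding with WGA beads on crude membranes from HEK293 cells stably expressing hGcgR. Buffer: 25 mM HEPES pH 7.4, 2.5 mM CaCl2, 1 mM MgCl2, 0.1% bacitracin, 0.003% Tween-20; 10-point 3-fold dilutions, NSB with 1 μM Gcg.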",
  "note": "*1 amine or outer side, *2 acyl side, *3 side chain or, on linkers, in order; H or OH if unused. Where a SMILES comes first, the peptide text is derived from it. Side-chain parts run from the residue outwards. [ ]: non-standard residue; d: D form. The star is where a group is joined. C20 diacid = O=C(O)CCCCCCCCCCCCCCCCCCC(=O)*; γGlu = O=C(O)[C@H](CCC(=O)[*:2])N[*:1]; αMeF = C[C@](N)(Cc1ccccc1)C(=O)O; 4Pal = N[C@@H](Cc1ccncc1)C(=O)O; αMeL = CC(C)C[C@](C)(N)C(=O)O; AEEA = NCCOCCOCC(=O)O; Aib = CC(C)(N)C(=O)O",
  "data": [
    {"smiles": "CC[C@H](C)[C@H](NC(=O)[C@H](CO)NC(=O)[C@H](Cc1ccc(O)cc1)NC(=O)[C@H](CC(=O)O)NC(=O)[C@H](CO)NC(=O)[C@@H](NC(=O)[C@](C)(Cc1ccccc1)NC(=O)[C@@H](NC(=O)CNC(=O)[C@H](CCC(=O)O)NC(=O)C(C)(C)NC(=O)[C@@H](N)Cc1ccc(O)cc1)[C@@H](C)O)[C@@H](C)CC)C(=O)N[C@@](C)(CC(C)C)C(=O)N[C@@H](CC(C)C)C(=O)N[C@@H](CC(=O)O)C(=O)N[C@@H](CCCCN)C(=O)N[C@@H](CCCCNC(=O)COCCOCCNC(=O)COCCOCCNC(=O)CC[C@H](NC(=O)CCCCCCCCCCCCCCCCCCC(=O)O)C(=O)O)C(=O)N[C@@H](Cc1c[nH]cn1)C(=O)N[C@@H](CCC(N)=O)C(=O)NC(C)(C)C(=O)N[C@@H](CCC(=O)O)C(=O)N[C@@H](Cc1ccccc1)C(=O)N[C@H](C(=O)N[C@@H](CCC(=O)O)C(=O)N[C@@H](Cc1ccncc1)C(=O)N[C@@H](CC(C)C)C(=O)N[C@@H](CC(C)C)C(=O)N[C@@H](C)C(=O)N[C@H](C(=O)NCC(=O)N1CCC[C@H]1C(=O)N[C@@H](CO)C(=O)N[C@@H](CO)C(=O)NCC(=O)N[C@@H](C)C(=O)N1CCC[C@H]1C(=O)N1CCC[C@H]1C(=O)N1CCC[C@H]1C(=O)N[C@@H](CO)C(N)=O)[C@@H](C)O)C(C)C", "note": "[Example 61] (H-Y[Aib]EGT[αMeF]ISDYSI[αMeL]LDKK([AEEA-AEEA-γGlu-C20 diacid])HQ[Aib]EFVE[4Pal]LLATGPSSGAPPPS-NH2)", "values": [
      {"measurement": "Ki", "value": 0.0804, "unit": "µM"}
    ]}
  ]
}
